US20260226060A1, “SALTS AND CRYSTALLINE FORMS OF COMPOUND A, METHODS OF PREPARATION, AND USES THEREOF” (SHENZHEN NEWDEL BIOTECH CO., LTD., priority 2023, published 2026)
Read-outs that look alike come from different tables or passages of the source.

Legend:
[1] = Tableting stability (40 Mpa, 1 min; XRPD); type: physicochemical
[2] = Polymorph screening: evaporating crystallization; type: physicochemical; details: for Results (quick volatilization −1 h) Wet sample: saturated solution (50° C. to room temperature)
[3] = Polymorph screening: cooling crystallization; type: physicochemical; details: for solid obtained by cooling crystallization: solution in methanol
Description: It was filtered through a microfilm into clear vials. The solution was divided into two equal parts, one part of filtrate was placed in a refrigerator (5° C.) for rapid cooling, and the other part of filtrate was placed in a heating metal module with a power off and naturally cooled to room temperature.

[4] = Polymorph screening: antisolvent precipitation; type: physicochemical; details: for Results Wet sample: Vsolvent/Vanti-solvent 1/10
Description: An anti-solvent was gradually added thereto until a solid precipitated or a solvent volume of was added.

[5] = Solubility analysis in biological solvents (SGF, FaSSIF, FeSSIF) and water, with pH and XRPD of residual solid; type: physicochemical; details: for Solubility: 37° C., target 5 mg/mL
Description: (§1) HPLC analysis was performed by using an Agilent HPLC 1260 series instrument and the HPLC methods used for solubility and stability determinations were shown in Tables 33 and 34, respectively.

[6] = Short-term physical stability of anhydrous crystal forms (40° C./75% RH, open, 1 day; XRPD); type: physicochemical
Source text: In addition to the mesylate crystalline form I, the other anhydrous crystalline forms were stable under high humidity conditions.

physchem = details: water, thermodynamic from solid
[7] = Dynamic vapor sorption (DVS) hygroscopicity; type: physicochemical
Description: The water vapor sorption/desorption data of the samples were collected on a dynamic vapor sorption instrument (proUmid GmbH & Co. KG, Germany). Approximately 50-70 mg of sample was placed in a sample pan previously tared and the weight of the sample was measured accurately.

[8] = Polymorph screening: trituration for 3 or 7 days at room temperature or 50° C.; type: physicochemical
[9] = Mechanical grinding stability (XRPD); type: physicochemical; details: ground in a mortar 5 minutes, samples at 2 and 5 minutes
[10] = Solid state stability at 60° C. (closed) and 40° C./75% RH (open), XRPD and HPLC purity; type: physicochemical
Description: (closed) and 40° C./75 RH (open) for 14 days, XRPD analysis and purity analysis were performed at various points of time, and solid-state stability was evaluated.
as §1

[11] = 60° C./closed and 40° C./75% RH, 7 days

crystalline form after tableting (XRPD) [1]: unchanged
crystallinity after tableting (XRPD) [1]: slightly reduced
new crystalline form by evaporating crystallization (XRPD) ([2]; quick and slow evaporation): no new crystalline form was obtained
Results (quick volatilization −1 h) Wet sample ([2]; solvent EtOH, batch 071-A2): amorphous
Results (quick volatilization −1 h) Wet sample ([2]; solvent MeOH, batch 071-A1): free base form 1
new crystalline form by cooling crystallization (XRPD) [3]: no new crystalline form was obtained
solid obtained by cooling crystallization ([3]; rapid cooling (5° C.)): dissociated into free base form 1
solid obtained by cooling crystallization ([3]; slow cooling to room temperature): into free base form 2
new crystalline form by antisolvent precipitation (XRPD) ([4]; from MeOH, THF or DMSO): no new crystalline form was obtained
Results Wet sample ([4]; solvent DMSO (100 mg/mL, 0.2 mL), anti-solvent EA, batch 073-C1): clear solution
Results Wet sample ([4]; solvent DMSO (100 mg/mL, 0.2 mL), anti-solvent IPAC, batch 073-C2): clear solution
Results Wet sample ([4]; solvent DMSO (100 mg/mL, 0.2 mL), anti-solvent MTBE, batch 073-C4): clear solution
Results Wet sample ([4]; solvent MeOH (Saturated, 0.3 mL), anti-solvent MTBE, batch 073-A2): clear solution
Results Wet sample ([4]; solvent THF (25 mg/mL, 0.4 mL), anti-solvent EA, batch 073-B1): clear solution
pH in solubility analysis ([5]; FaSSIF (medium pH 6.5), 0.5 h): 6.3
pH in solubility analysis ([5]; FaSSIF (medium pH 6.5), 2 h): 6.2
pH in solubility analysis ([5]; FaSSIF (medium pH 6.5), 24 h): 6.0
XRPD of residual solid in solubility analysis ([5]; FaSSIF, 0.5 h): unchanged
Solubility ([5]; FaSSIF, 0.5 h): 0.011 mg/mL
Solubility ([5]; FaSSIF, 0.5 h, listed as fumarate crystalline form I): 0.011/0.011/ mg/mL
Solubility ([5]; FaSSIF, 2 h): 0.011 mg/mL
Solubility ([5]; FaSSIF, 2 h, listed as fumarate crystalline form I): 0.011/0.011/ mg/mL
XRPD of residual solid in solubility analysis ([5]; FaSSIF, 24 h): unchanged
Solubility ([5]; FaSSIF, 24 h): 0.022 mg/mL
pH in solubility analysis ([5]; FeSSIF (medium pH 5.0), 0.5 h): 5.0
pH in solubility analysis ([5]; FeSSIF (medium pH 5.0), 2 h): 5.0
pH in solubility analysis ([5]; FeSSIF (medium pH 5.0), 24 h): 5.0
Solubility ([5]; FeSSIF, 0.5 h): 0.197 mg/mL
Solubility ([5]; FeSSIF, 0.5 h, listed as fumarate crystalline form I): 0.197 mg/mL
Solubility ([5]; FeSSIF, 2 h): 0.175 mg/mL
Solubility ([5]; FeSSIF, 2 h, listed as fumarate crystalline form I): 0.175 mg/mL
XRPD of residual solid in solubility analysis ([5]; FeSSIF, 24 h): unchanged
Solubility ([5]; FeSSIF, 24 h): 0.530 mg/mL
pH in solubility analysis ([5]; SGF (medium pH 1.2), 0.5 h): 1.3
pH in solubility analysis ([5]; SGF (medium pH 1.2), 2 h): 1.4
pH in solubility analysis ([5]; SGF (medium pH 1.2), 24 h): 1.3
XRPD of residual solid in solubility analysis ([5]; SGF, 0.5 h): unchanged
Solubility ([5]; SGF, 0.5 h): <LOD
Solubility ([5]; SGF, 0.5 h, listed as fumarate crystalline form I): <LOD/<LOD/
Solubility ([5]; SGF, 2 h): <LOD
Solubility ([5]; SGF, 2 h, listed as fumarate crystalline form I): <LOD/<LOD/
XRPD of residual solid in solubility analysis ([5]; SGF, 24 h): unchanged
Solubility ([5]; SGF, 24 h): <LOD
Solid form of residual solids in solubility analysis ([5]; summary over water, SGF, FaSSIF, FeSSIF): remained unchanged
pH in solubility analysis ([5]; water (medium pH 6.6), 0.5 h): 4.6
pH in solubility analysis ([5]; water (medium pH 6.6), 2 h): 4.3
pH in solubility analysis ([5]; water (medium pH 6.6), 24 h): 4.2
XRPD of residual solid in solubility analysis ([5]; water, 0.5 h): unchanged
Solubility ([5]; water, 0.5 h): <LOD
Solubility ([5]; water, 0.5 h, listed as fumarate crystalline form I): <LOD/<LOD/
Solubility ([5]; water, 2 h): <LOD
Solubility ([5]; water, 2 h, listed as fumarate crystalline form I): <LOD/<LOD/
XRPD of residual solid in solubility analysis ([5]; water, 24 h): unchanged
Solubility ([5]; water, 24 h): <LOD
XPRD Results after short-term physical stability [6]: unchanged
Solubility (physchem; Solubility): < 600 µg/mL
Solubility (physchem; solubility): < 5000 µg/mL
crystalline form after DVS analysis (XRPD) [7]: remained unchanged
hygroscopicity (DVS) [7]: substantially non-hygroscopic
DVS The weight gains by vapor sorption % ([7]; 80% RH): 0.2, 0.2%
DVS The weight gains by vapor sorption % ([7]; 90% RH): 0.2, 0.2%
DVS The weight gains by vapor sorption % ([7]; 90% RH, listed as fumarate crystalline form I): 0.2/0.2%
hygroscopicity (DVS) ([7]; listed as fumarate crystalline form I): almost non-hygroscopic
hygroscopicity (DVS) ([7]; listed as fumarate form crystalline I): almost non-hygroscopic
crystal form after grinding (XRPD) [9]: not changed
crystallinity after grinding (XRPD) [9]: not obviously reduced
Purity in stability evaluation ([10]; 0 d): 99.14 Area %
Solid state stability-14 days ([10]; 60° C./Closed and 40° C./75% RH (Open), 14 days): physically and chemically stable
chemical purity, 7 days [10, 11]: remained unchanged
solid stability, 7 days [10, 11]: physicochemically stable
Purity in stability evaluation ([10]; 7 d-40° C./75% RH): 99.13 Area %
XRPD in stability evaluation ([10]; 7 d-40° C./75% RH): unchanged
Purity in stability evaluation ([10]; 7 d-60° C./capped): 99.14 Area %
XRPD in stability evaluation ([10]; 7 d-60° C./capped): unchanged
Purity in stability evaluation ([10]; 14 d-40° C./75% RH): 99.13 Area %
XRPD in stability evaluation ([10]; 14 d-40° C./75% RH): unchanged
Purity in stability evaluation ([10]; 14 d-60° C./capped): 99.13 Area %
XRPD in stability evaluation ([10]; 14 d-60° C./capped): unchanged
Compound: Cc1c(C#Cc2cnc3ccc(N4CCC(O)CC4)nn23)cccc1C(=O)Nc1cc(Cl)cc(C(F)(F)F)c1 [Fumarate crystalline form I]
new crystalline form by trituration (XRPD) ([8]; 30 mg/mL suspension, room temperature or 50° C., 3 or 7 days): no new fumarate crystalline form was formed
dissociation on trituration ([8]; in alcohol, water, 2-Me-THF, MTBE and acetone): dissociated into free base crystalline form VII
change in crystalline form, 7 days [10, 11]: No change in crystalline form was observed
